A value given as a limit tells only on which side of the number the result lay.

In one assay the test system is Miro1. Nature of the assay: Anti-Ac-Lys immunoprecipitation of Miro1 from DRG lysates. The assay is classed as cell-based, rat. The procedure: Protein acetylome profiles from nonneuronal cells have reported acetylation of Miro1/2 and Milton 1/2 but not of Syntaphilin (Choudhary et al., 2009; Lundby et al., 2012; Wagner et al., 2012).
DRG neurons were lysed in 100 mM KCl, 5 mM MgCl2, 10 mM Hepes, pH 7.4, 1 mM DTT, and 0.5% NP-40 supplemented with lx protease inhibitor cocktail (Roche). The lysates were passed through a 25-gauge needle five times and cleared by centrifugation at 12,000 g for […]. Equal amounts of the supernatants were then incubated with primary antibodies overnight, and immunocomplexes were precipitated with Protein G-Dynabeads (Invitrogen) for an additional 2 h at 4° C. with rotation. A cocktail of rabbit and mouse anti-Ac-Lys antibodies (5 μg each; Cell Signaling; 9441 and 9681) was used directly for analyses of Myc-Miro1 transfected cultures by immunoprecipitation. For analysis of endogenous Miro1 acetylation, the anti-Lys antibody cocktail (5 μg of each) was directly cross-linked to 5 mg of M-270 epoxy beads (Dynabeads) using the Dynabeads antibody coupling kit according to the manufacturer's instructions (Life Technologies; 14311D). […]
For immunoblotting, protein lysates or immunoprecipitates were denatured by boiling in Laemmli sample buffer, fractionated by SDS-PAGE, and transferred to nitrocellulose membranes. […] Signals were detected using ECL Prime (GE Healthcare) after extensive washing.

Assay [1] has as its system growth cones of adult DRG neurons. The assay is described as follows: Growth cone area/size of DRG sensory axons (DIC imaging). The assay is classed as cell-based, rat. The procedure:
HDAC6 inhibition increases growth cone size of sensory axons. Given our previous work showing that HDAC6 inhibition allows axons to grow on MAG and CSPG substrates (Rivieccio et al., 2009; Butler et al., 2010), we asked how inhibition of HDAC6 alters axon growth in cultures of adult dorsal root ganglion (DRG) neurons. […] (A) Quantification of neurite length for dissociated DRGs cultured on laminin with addition of HDAC6 inhibitor TubA (10 μm) versus vehicle control (DMSO) over 1 h is shown as average fold-change relative to vehicle±SEM (n≥95 neurons across three independent experiments; NS by one-way ANOVA with Bonferroni post hoc). (B and C) show representative DIC images of distal axons from DRG neurons cultured as in A are shown (B). 1-h TubA treatment appears to increase growth cone size. Analyses of growth cone area across multiple experiments show a significant increase in area after TubA treatment (C). Values are average fold-change±SEM (n≥26 neurons over at least three culture preparations; ***, P≤0.005 by one-way ANOVA with Bonferroni post hoc; scale bar=5 μm; 40×/1.3 NA objective used). […] Prominent HDAC6 signals are seen in distal axons and growth cones (arrows) regardless of TubA exposure. […]
NF-stained cultures were used for neurite growth analyses. […] The growth cone area was measured using ImageJ software from these annotated DIC images. […]

Take `CN1CCc2c(c3ccccc3n2Cc2ccc(C(=O)NO)cc2)C1` [TubA, tubastatin]: the “pull-down efficiency of Miro1 with anti-Ac-Lys antibody cocktail” value with Miro1 (10 μM TubA for 4 h, n=4) is 14.1±2.2%. In addition, in the assay on Miro1 (treatment with TubA), the “anti-Ac-Lys immunoprecipitated Miro1 band” value is on record as “modestly increasing”. Also, in assay [1] (10 μM TubA, time-lapse DIC), the “time after exposure at which growth cone enlargement was apparent” value is recorded as not above 10 min. For the same molecule, in assay [1] (10 μM, 1 h, laminin), the “growth cone size vs vehicle controls” value is reported as “significantly larger growth cones”.

The values above are taken from US20210330756A1, “Acetylation of Miro1” (University of South Carolina, priority 2020, published 2021).
